Legend:
HCC827 [1] = experiment: Antiproliferative activity against human […] assessed as inhibition of cell proliferation incubated for 72 hrs by MTT assay; format: functional, cell-based; conditions: HCC827, 72 h
NCI-H1975 = experiment: Antiproliferative activity against human NCI-H1975 cells expressing EGFR L858R/T790M mutant assessed as inhibition of cell proliferation incubated for 72 hrs by MTT assay; format: functional, cell-based; conditions: NCI-H1975, 72 h
[2] = tested on: von Hippel-Lindau disease tumor suppressor/Epidermal growth factor receptor (Homo sapiens), P00533+P40337 [L858R,T790M]; experiment: Protac activity at VHL/EGFR L858R/T790M mutant in human NCI-H1975 cells assessed as induction of EGFR degradation at 100 nM incubated for 24 hrs by Western blot analysis relative to control; format: cell-based
[3] = tested on: von Hippel-Lindau disease tumor suppressor/Epidermal growth factor receptor (Homo sapiens), P00533+P40337 [L858R,T790M]; experiment: Protac activity at VHL/EGFR L858R/T790M mutant in human NCI-H1975 cells assessed as induction of EGFR degradation at 1000 nM incubated for 24 hrs by Western blot analysis relative to control; format: cell-based
A-431 = experiment: Antiproliferative activity against human A-431 cells expressing EGFR wildtype assessed as inhibition of cell proliferation incubated for 72 hrs by MTT assay; format: functional, cell-based; conditions: A-431, 72 h
[4] = tested on: von Hippel-Lindau disease tumor suppressor/Epidermal growth factor receptor (Homo sapiens), P00533+P40337 [L858R,T790M]; experiment: Protac activity at VHL/[…] cells assessed as induction of EGFR degradation at 100 nM incubated for 24 hrs by Western blot analysis relative to control; format: cell-based
HCC827 [5] = experiment: Antiproliferative activity against human HCC827 cells expressing EGFR deletion19 mutant assessed as inhibition of cell proliferation incubated for 72 hrs by MTT assay; format: functional, cell-based; conditions: HCC827, 72 h
[6] = tested on: von Hippel-Lindau disease tumor suppressor/Epidermal growth factor receptor (Homo sapiens), P00533+P40337 [L858R,T790M]; experiment: Protac activity at VHL/[…] cells assessed as induction of EGFR degradation at 1000 nM incubated for 24 hrs by Western blot analysis relative to control; format: cell-based
[7] = target: von Hippel-Lindau disease tumor suppressor/Epidermal growth factor receptor (Homo sapiens, UniProt P00533+P40337, L858R/T790M); experiment: Protac activity at VHL/EGFR L858R/T790M mutant (unknown origin) assessed as inhibition of EGFR incubated for 40 mins in presence of ATP by Kinase Glo luminescence assay; format: protein assay
[8] = tested on: von Hippel-Lindau disease tumor suppressor/Epidermal growth factor receptor (Homo sapiens), P00533+P40337 [UNDEFINED MUTATION]; experiment: Protac activity at VHL/EGFR/deletion19 in human HCC827 cells assessed as induction of EGFR degradation at 30 nM incubated for 24 hrs by Western blot analysis relative to control; format: cell-based
[9] = tested on: von Hippel-Lindau disease tumor suppressor/Epidermal growth factor receptor (Homo sapiens), P00533+P40337 [L858R,T790M]; experiment: Protac activity at VHL/EGFR L858R/T790M mutant in human NCI-H1975 cells assessed as induction of EGFR degradation at 10 nM incubated for 24 hrs by Western blot analysis relative to control; format: cell-based
[10] = tested on: von Hippel-Lindau disease tumor suppressor/Epidermal growth factor receptor (Homo sapiens), P00533+P40337 [UNDEFINED MUTATION]; experiment: Protac activity at VHL/EGFR/deletion19 in human HCC827 cells assessed as induction of EGFR degradation at 3 nM incubated for 24 hrs by Western blot analysis relative to control; format: cell-based

IC50 (HCC827 [1])	Structure (SMILES)	IC50 (NCI-H1975)	Activity [2]	Activity [3]	IC50 (A-431)	Activity [4]	IC50 (HCC827 [5])	Activity [6]	IC50 [7]	Activity [8]	Activity [9]	Activity [10]
6.49 nM	C=CC(=O)N1CCC[C@@H](n2c(Nc3ccccc3)nc3cnc(Nc4ccc(N5CCN(CCCCCCCC(=O)N[C@H](C(=O)N6C[C@H](O)C[C@H]6C(=O)N[C@@H](C)c6ccc(-c7scnc7C)cc6)C(C)(C)C)CC5)cc4)nc32)C1	1060 nM										
	COc1cc(N(C)CCN(C)C)c(NC(=O)/C=C/CN(C)CCN(C)C(=O)CCCCCCC(=O)N[C@H](C(=O)N2C[C@H](O)C[C@H]2C(=O)NCc2ccc(-c3scnc3C)cc2)C(C)(C)C)cc1Nc1nccc(-c2cn(C)c3ccccc23)n1	1690 nM	< 20%	< 20%	> 10000 nM	< 20%	130 nM	24%				
	C=CC(=O)Nc1cc(Nc2nccc(-c3cn(C)c4ccccc34)n2)c(OC)cc1N(CCCCCCC(=O)N[C@H](C(=O)N1C[C@H](O)C[C@H]1C(=O)NCc1ccc(-c2scnc2C)cc1)C(C)(C)C)CCN(C)C	760 nM	< 20%	< 20%	1550 nM	< 28%	75 nM	34%				
	COc1cc(N2CCN(CC(=O)NCCCCCCC(=O)N[C@H](C(=O)N3C[C@H](O)C[C@H]3C(=O)NCc3ccc(-c4scnc4C)cc3)C(C)(C)C)CC2)c(NC(=O)/C(C#N)=C/c2ccncc2)cc1Nc1nccc(-c2cn(C)c3ccccc23)n1	> 10000 nM					> 10000 nM		> 10 µM			
	COc1cc(N(C)CCN(C)C)c(NC(=O)/C(C#N)=C/C(C)(C)NC(=O)CCCCCCC(=O)N[C@H](C(=O)N2C[C@H](O)C[C@H]2C(=O)NCc2ccc(-c3scnc3C)cc2)C(C)(C)C)cc1Nc1nccc(-c2cn(C)c3ccccc23)n1	2360 nM	< 20%	< 20%		< 20%	544 nM	26%	0.857 µM			
12.4 nM	C=CC(=O)N1CC[C@@H](n2c(Nc3ccccc3)nc3cnc(Nc4ccc(N5CCN(CCCCCCC(=O)N[C@H](C(=O)N6C[C@H](O)C[C@H]6C(=O)NCc6ccc(-c7scnc7C)cc6)C(C)(C)C)CC5)cc4)nc32)C1	550 nM										
	C=CC(=O)Nc1cc(Nc2nccc(-c3cn(C)c4ccccc34)n2)c(OC)cc1N(CCCCCCC(=O)NCCCCCCC(=O)N[C@H](C(=O)N1C[C@H](O)C[C@H]1C(=O)NCc1ccc(-c2scnc2C)cc1)C(C)(C)C)CCN(C)C	730 nM	< 20%	< 20%		< 20%	110 nM	< 20%				
	COc1cc(N(C)CCN(C)C)c(NC(=O)/C=C/CN(C)CCCCCCCC(=O)N[C@H](C(=O)N2C[C@H](O)C[C@H]2C(=O)NCc2ccc(-c3scnc3C)cc2)C(C)(C)C)cc1Nc1nccc(-c2cn(C)c3ccccc23)n1	640 nM	< 20%	< 20%		< 20%	67 nM	25%				
	C=CC(=O)Nc1cc(Nc2nccc(-c3cn(C)c4ccccc34)n2)c(OC)cc1N(CCCCCCC(=O)NCCOCCOCC(=O)N[C@H](C(=O)N1C[C@H](O)C[C@H]1C(=O)NCc1ccc(-c2scnc2C)cc1)C(C)(C)C)CCN(C)C	800 nM	< 20%	< 20%		23%	683 nM	25%				
	C=CC(=O)N1CCC[C@H](n2c(Nc3ccccc3)nc3cnc(Nc4ccc(N5CCN(CCCCCCC(=O)N[C@H](C(=O)N6C[C@H](O)C[C@H]6C(=O)NCc6ccc(-c7scnc7C)cc6)C(C)(C)C)CC5)cc4)nc32)C1	40 nM	69%		> 10000 nM		1.67 nM			70%	49%	62%
	C=CC(=O)N1CCC[C@@H](n2c(Nc3ccccc3)nc3cnc(Nc4ccc(N5CCN(C)CC5)cc4)nc32)C1	266 nM					1.77 nM					
	COc1cc(N(C)CCN(C)C)c(NC(=O)/C=C/CN(C)CCN(C)C(=O)CCCCCC(=O)N[C@H](C(=O)N2C[C@H](O)C[C@H]2C(=O)NCc2ccc(-c3scnc3C)cc2)C(C)(C)C)cc1Nc1nccc(-c2cn(C)c3ccccc23)n1	1470 nM	< 20%	< 20%		< 20%	140 nM	25%				
	COc1cc(N2CCN(CC(=O)NCCCCCCC(=O)N[C@H](C(=O)N3C[C@H](O)C[C@H]3C(=O)NCc3ccc(-c4scnc4C)cc3)C(C)(C)C)CC2)c(NC(=O)/C(C#N)=C/C2CC2)cc1Nc1nccc(-c2cn(C)c3ccccc23)n1	> 10000 nM					> 10000 nM		> 10 µM			
	COc1cc(N2CCN(C)CC2)c(NC(=O)/C(C#N)=C/C(C)(C)NC(=O)CCCCCC(=O)N[C@H](C(=O)N2C[C@H](O)C[C@H]2C(=O)NCc2ccc(-c3scnc3C)cc2)C(C)(C)C)cc1Nc1nccc(-c2cn(C)c3ccccc23)n1	5790 nM					1390 nM		> 10 µM			
	C=CC(=O)N1CCC[C@H](n2c(Nc3ccccc3)nc3cnc(Nc4ccc(N5CCN(CC(=O)NCCOCCOCC(=O)N[C@H](C(=O)N6C[C@H](O)C[C@H]6C(=O)NCc6ccc(-c7scnc7C)cc6)C(C)(C)C)CC5)cc4)nc32)C1	282 nM	< 20%				59.6 nM			57%	< 20%	50%
	C=CC(=O)N1CC[C@@H](n2c(Nc3ccccc3)nc3cnc(Nc4ccc(N5CCN(C)CC5)cc4)nc32)C1	290 nM					1.16 nM					
	CCC(=O)N1CCC[C@H](n2c(Nc3ccccc3)nc3cnc(Nc4ccc(N5CCN(C)CC5)cc4)nc32)C1	1170 nM					2.48 nM					
	C=CC(=O)N1CCC[C@H](n2c(Nc3ccccc3)nc3cnc(Nc4ccc(N5CCN(CC(=O)NCCCCCC(=O)N[C@H](C(=O)N6C[C@H](O)C[C@H]6C(=O)NCc6ccc(-c7scnc7C)cc6)C(C)(C)C)CC5)cc4)nc32)C1	250 nM	23%				36.5 nM			60%	< 20%	46%
	COc1cc(N(C)CCN(C)C)c(NC(=O)/C=C/CN(C)CCN(C)C(=O)CCCC(=O)N[C@H](C(=O)N2C[C@H](O)C[C@H]2C(=O)NCc2ccc(-c3scnc3C)cc2)C(C)(C)C)cc1Nc1nccc(-c2cn(C)c3ccccc23)n1	2760 nM					150 nM					
	C=CC(=O)Nc1cccc(-n2c(Nc3ccccc3)nc3cnc(Nc4ccc(N5CCN(C)CC5)cc4)nc32)c1	41 nM					0.38 nM					
	C=CC(=O)Nc1cc(Nc2nccc(-c3cn(C)c4ccccc34)n2)c(OC)cc1N(C)CCN(C)CC(=O)NCCOCCOCC(=O)N[C@H](C(=O)N1C[C@H](O)C[C@H]1C(=O)NCc1ccc(-c2scnc2C)cc1)C(C)(C)C	2370 nM					768 nM					
	C=CC(=O)N1CCC[C@H](n2c(Nc3ccccc3)nc3cnc(Nc4ccc(N5CCN(CC(=O)NCCCCCCC(=O)N[C@H](C(=O)N6C[C@H](O)C[C@H]6C(=O)NCc6ccc(-c7scnc7C)cc6)C(C)(C)C)CC5)cc4)nc32)C1	127 nM	< 20%				8.93 nM			77%	< 20%	63%
	COc1cc(N(C)CCN(C)C)c(NC(=O)/C=C/CN(C)CCCCCCCCCC(=O)N[C@H](C(=O)N2C[C@H](O)C[C@H]2C(=O)NCc2ccc(-c3scnc3C)cc2)C(C)(C)C)cc1Nc1nccc(-c2cn(C)c3ccccc23)n1	985 nM	< 20%	< 20%	840 nM	< 20%	61 nM	30%				
	CN1CCN(c2ccc(Nc3ncc4nc(Nc5ccccc5)n(C5CCCC5)c4n3)cc2)CC1	342 nM					0.93 nM					
	C=CC(=O)N1CCC[C@H](n2c(Nc3ccccc3)nc3cnc(Nc4ccc(N5CCN(CCCCCCCC(=O)N[C@H](C(=O)N6C[C@@H](O)C[C@H]6C(=O)N[C@@H](C)c6ccc(-c7scnc7C)cc6)C(C)(C)C)CC5)cc4)nc32)C1	41 nM					1.83 nM					
	C=CC(=O)N1CCC(n2c(Nc3ccccc3)nc3cnc(Nc4ccc(N5CCN(C)CC5)nc4)nc32)CC1	290 nM					3.05 nM					
	C=CC(=O)N1CCC(n2c(Nc3ccccc3)nc3cnc(Nc4ccc(N5CCN(C)CC5)cc4)nc32)CC1	360 nM					2.19 nM					

Structure (SMILES)	IC50 (HCC827 [1])	IC50 (NCI-H1975)	Activity [2]	Activity [3]	IC50 (A-431)	Activity [4]	IC50 (HCC827 [5])	Activity [6]	IC50 [7]	Activity [8]	Activity [9]	Activity [10]
C=CC(=O)N1CC[C@H](n2c(Nc3ccccc3)nc3cnc(Nc4ccc(N5CCN(CCCCCCC(=O)N[C@H](C(=O)N6C[C@H](O)C[C@H]6C(=O)NCc6ccc(-c7scnc7C)cc6)C(C)(C)C)CC5)cc4)nc32)C1	1.86 nM	44 nM	79%		> 10000 nM		1.66 nM			81%	38%	65%

From ChEMBL document CHEMBL5154782, “Discovery of Potent PROTACs Targeting EGFR Mutants through the Optimization of Covalent EGFR Ligands” (J Med Chem, 2022)
